T1: OsSAH3 (Oryza sativa, UniProt Q7XUN0)
T1 construct: gene Os04g0581100; recombinant from E. coli BL21 (DE3), modified pGEX vector (GST purification), 3 x Myc at C-terminus; wild type has F136, R138, I289, P292; gene on chromosome 4, tail-to-tail with OsSAH2
T1 sequence (Q7XUN0 1-352): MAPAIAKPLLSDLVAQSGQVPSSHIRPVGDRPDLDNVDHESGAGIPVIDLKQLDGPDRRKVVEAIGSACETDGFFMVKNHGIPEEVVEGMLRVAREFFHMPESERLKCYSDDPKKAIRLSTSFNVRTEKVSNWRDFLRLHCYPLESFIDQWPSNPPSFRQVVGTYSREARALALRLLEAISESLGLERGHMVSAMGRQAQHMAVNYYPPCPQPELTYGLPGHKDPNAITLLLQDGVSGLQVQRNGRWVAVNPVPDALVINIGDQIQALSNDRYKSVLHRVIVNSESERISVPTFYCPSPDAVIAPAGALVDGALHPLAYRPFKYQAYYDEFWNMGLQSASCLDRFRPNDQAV

T2: OsSAH4 (Oryza sativa, UniProt Q8W2X5)
T2 construct: gene F3H-2; recombinant from E. coli BL21 (DE3), modified pGEX vector (GST purification), 3 x Myc at C-terminus
T2 sequence (Q8W2X5 1-342): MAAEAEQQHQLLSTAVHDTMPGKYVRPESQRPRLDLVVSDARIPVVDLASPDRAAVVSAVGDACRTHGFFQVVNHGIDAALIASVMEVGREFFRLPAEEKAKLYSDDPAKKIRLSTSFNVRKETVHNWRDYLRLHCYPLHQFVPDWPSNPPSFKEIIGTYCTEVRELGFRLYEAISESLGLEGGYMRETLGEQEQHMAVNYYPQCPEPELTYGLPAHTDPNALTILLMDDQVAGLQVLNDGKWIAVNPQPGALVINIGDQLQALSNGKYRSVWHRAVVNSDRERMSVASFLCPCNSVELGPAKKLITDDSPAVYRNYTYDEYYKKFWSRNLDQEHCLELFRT

T3: DMR6 (Arabidopsis thaliana, UniProt Q9FLV0)
T3 construct: recombinant from E. coli BL21 (DE3), modified pGEX vector (GST purification), 3 x Myc at C-terminus; wild type has Y126, A283
T3 sequence (Q9FLV0 1-341): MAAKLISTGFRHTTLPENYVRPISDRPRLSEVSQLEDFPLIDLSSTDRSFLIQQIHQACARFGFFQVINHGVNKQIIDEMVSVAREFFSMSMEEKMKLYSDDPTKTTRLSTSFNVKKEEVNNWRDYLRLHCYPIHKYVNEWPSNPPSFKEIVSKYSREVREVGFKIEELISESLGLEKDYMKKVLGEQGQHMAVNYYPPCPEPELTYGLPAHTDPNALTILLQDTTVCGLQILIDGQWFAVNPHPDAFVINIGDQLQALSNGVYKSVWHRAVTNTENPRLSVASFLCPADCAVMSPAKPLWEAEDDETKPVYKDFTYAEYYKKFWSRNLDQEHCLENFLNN

T4: OsSAH2 (Oryza sativa, UniProt B9FC47, Y127F)
T4 construct: gene Os04g0581000; recombinant from E. coli BL21 (DE3), modified pGEX vector (GST purification), 3 x Myc at C-terminus; wild type has Y127, M282, A285; gene on chromosome 4, tail-to-tail with OsSAH3
T4 sequence (B9FC47 1-340 Y127F): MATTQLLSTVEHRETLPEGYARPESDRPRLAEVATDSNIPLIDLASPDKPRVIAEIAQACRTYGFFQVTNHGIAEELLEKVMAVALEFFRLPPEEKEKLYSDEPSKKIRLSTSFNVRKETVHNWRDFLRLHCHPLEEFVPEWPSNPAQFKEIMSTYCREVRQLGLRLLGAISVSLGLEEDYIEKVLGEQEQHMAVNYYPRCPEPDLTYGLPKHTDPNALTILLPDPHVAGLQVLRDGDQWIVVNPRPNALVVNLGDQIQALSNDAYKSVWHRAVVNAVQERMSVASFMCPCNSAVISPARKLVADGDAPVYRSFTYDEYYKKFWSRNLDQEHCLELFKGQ

T5: OsSAH2 (Oryza sativa, UniProt B9FC47)
T5 construct: gene Os04g0581000; recombinant from E. coli BL21 (DE3), modified pGEX vector (GST purification), 3 x Myc at C-terminus; wild type has Y127, M282, A285; gene on chromosome 4, tail-to-tail with OsSAH3
T5 sequence (B9FC47 1-340): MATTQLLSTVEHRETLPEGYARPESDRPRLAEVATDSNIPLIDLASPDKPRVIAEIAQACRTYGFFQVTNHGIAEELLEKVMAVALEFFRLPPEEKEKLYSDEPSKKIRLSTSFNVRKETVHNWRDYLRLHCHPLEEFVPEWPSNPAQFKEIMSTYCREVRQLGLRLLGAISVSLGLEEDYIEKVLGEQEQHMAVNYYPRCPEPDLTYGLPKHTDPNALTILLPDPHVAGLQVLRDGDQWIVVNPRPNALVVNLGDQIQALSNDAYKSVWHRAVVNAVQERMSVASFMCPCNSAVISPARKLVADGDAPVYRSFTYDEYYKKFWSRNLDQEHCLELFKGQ

T6: OsSAH1 (Oryza sativa, UniProt Q10SI2)
T6 construct: gene Os03g0122300; recombinant from E. coli BL21 (DE3), modified pGEX vector (GST purification), 3 x Myc at C-terminus
T6 sequence (Q10SI2 1-342): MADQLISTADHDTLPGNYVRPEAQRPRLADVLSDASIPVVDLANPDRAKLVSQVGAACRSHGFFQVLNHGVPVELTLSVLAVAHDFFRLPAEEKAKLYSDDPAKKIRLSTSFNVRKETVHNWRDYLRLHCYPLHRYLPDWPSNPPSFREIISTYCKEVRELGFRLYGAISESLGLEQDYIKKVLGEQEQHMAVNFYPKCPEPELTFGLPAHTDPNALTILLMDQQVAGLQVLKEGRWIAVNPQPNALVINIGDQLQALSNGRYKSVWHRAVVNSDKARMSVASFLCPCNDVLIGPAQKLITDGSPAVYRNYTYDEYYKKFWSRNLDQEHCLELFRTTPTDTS


Tests used:
[1] = target: T1, OsSAH3; assay: LC-MS/MS of […],5-DHBA formation, substrate inhibition fit; type: biochemical; details: substrate inhibition constant, second site; 5-hydroxylation (2,5-DHBA product); 1 mM 2-oxoglutarate, 0.4 mM FeSO4, phosphate pH 6.8, 40 °C
[2] = target: T2, OsSAH4; assay: as above; type: biochemical; details: substrate inhibition constant, second site; 5-hydroxylation (2,5-DHBA product); 1 mM 2-oxoglutarate, 0.4 mM FeSO4, phosphate pH 6.8, 40 °C
[3] = target: T3, DMR6; assay: LC-MS/MS product formation relative to wild type; type: biochemical; details: 2-oxoglutarate, FeSO4, phosphate pH 6.8, 40 °C; 2,3- and 2,5-DHBA products
[4] = target: T4, OsSAH2; assay: LC-MS/MS product formation relative to wild type; type: biochemical; details: 2-oxoglutarate, FeSO4, phosphate pH 6.8, 40 °C; 2,3- and 2,5-DHBA products
[5] = target: T5, OsSAH2; assay: LC-MS/MS of […],5-DHBA formation, substrate inhibition fit; type: biochemical; details: substrate inhibition constant, second site; 5-hydroxylation (2,5-DHBA product); 1 mM 2-oxoglutarate, 0.4 mM FeSO4, phosphate pH 6.8, 40 °C
[6] = target: T6, OsSAH1; assay: as above; type: biochemical; details: substrate inhibition constant, second site; 5-hydroxylation (2,5-DHBA product); 1 mM 2-oxoglutarate, 0.4 mM FeSO4, phosphate pH 6.8, 40 °C
[7] = substrate: O=C(O)c1ccccc1O; assay: purified protein; type: biochemical, Oryza sativa; details: 5-hydroxylation (2,5-DHBA product), 1 mM 2-oxoglutarate, 0.4 mM FeSO4, ascorbate, phosphate pH 6.8, 40 °C

Molecule	Ksi [1] [µM]	Ksi [2] [µM]	LC-MS/MS product formation relative to wild type [3]	relative enzyme activity [4]	Ksi [5] [µM]	Ksi [6] [µM]	Km [7] [µM]	kcat [7] [s⁻¹]	kcat/Km [7] [M⁻¹ s⁻¹]
O=C(O)c1ccccc1O [SA, 2-hydroxy benzoic acid]	365.12 ± 30.58	26.52 ± 10.71	The higher activity of DMR6 than that of OsSAH2 was also supported by these parameters	OsSAH2^Y127F mutant showed a similar level of SA5H activity as that of OsSAH2	2.14 ± 1.86	27.13 ± 21.11	–	–	–
OsSAH3 (Oryza sativa Japonica Group) (protein, recombinant from E. coli BL21 (DE3), modified pGEX vector (GST purification), 3 x Myc at C-terminus; wild type has F136, R138, I289, P292; gene on chromosome 4, tail-to-tail with OsSAH2) MAPAIAKPLLSDLVAQSGQVPSSHIRPVGDRPDLDNVDHESGAGIPVIDLKQLDGPDRRKVVEAIGSACETDGFFMVKNHGIPEEVVEGMLRVAREFFHMPESERLKCYSDDPKKAIRLSTSFNVRTEKVSNWRDFLRLHCYPLESFIDQWPSNPPSFRQVVGTYSREARALALRLLEAISESLGLERGHMVSAMGRQAQHMAVNYYPPCPQPELTYGLPGHKDPNAITLLLQDGVSGLQVQRNGRWVAVNPVPDALVINIGDQIQALSNDRYKSVLHRVIVNSESERISVPTFYCPSPDAVIAPAGALVDGALHPLAYRPFKYQAYYDEFWNMGLQSASCLDRFRPNDQAV	–	–	–	–	–	–	197.08 ± 19.42	0.256 ± 0.0332	1290

Source: PMC8836234, “Salicylic Acid Is Required for Broad-Spectrum Disease Resistance in Rice” (International Journal of Molecular Sciences, 2022)
